For one data set, the system named is Staphylococcus aureus. As to the kind of experiment: 96-well microtiter plate growth inhibition assay. To be noted: for inhibition at 200000 µg/mL (stock): 200 mg/mL sample at 2% in well (positive standard 0.4%). The format is cell-based. How it is done:
(§1) Antimicrobial activity of the crude extracts was determined using a 96-well microtiter plate assay based on growth inhibition. The assay was performed on […] different microbial strains, chosen according to the European Pharmacopoeia (ATCC references): Staphylococcus aureus ([…]), Escherichia coli (gram-negative bacteria), Pseudomonas aeruginosa ([…]), Propionibacterium acnes (anaerobic gram-positive bacteria), Aspergillus niger (fungus) and Candida albicans (yeast).
(§2) Samples for antimicrobial assay were prepared as follows: crude extracts were diluted at 200 mg/mL in a mixture of appropriate solvents, e.g. ethanol and water (60:40 v/v) or pure dimethylsulfoxide. After solubilization, the solutions were filtrated on 0.45 μm syringe filters.
(§3) The assay was performed for each strain according as follows: samples (at 200 mg/mL) were first diluted to 4% in water, then to 2% and 0.2% in wells. Final concentrations were also 0.4 and 0.04% of crude extracts in wells. Each concentration was assessed in replicate with one supplementary control well containing no microbial strain. For the assay at 2%, samples were mixed up in the wells with growth medium (95 μL) and microbial suspension (representing an absorbance of 0.6 for C. albicans, S. aureus and P. aeruginosa and 40 spores/μL for A. niger). For the assay at 0.2%, samples were first diluted to 0.2% with water in the wells. Negative controls constituted of the solvent mixture used to prepare the sample solutions, and positive controls with a synthetic preservative (methyl-paraben and/or phenoxyethanol, positive standard) were also prepared. Results were also compared with those obtained using a commercial natural preservative (commercial preservative). The 96-well plates were incubated at 25° C.
(§4) The absorbance was read for each plate at 620 nm 24, 48 and 72 hours after the beginning of the incubation to evaluate the growth of each microorganism in presence of crude extracts.
(§5) The results were expressed as a percentage of growth inhibition by the samples for each microorganism.

Another data set deals with Candida albicans. Nature of the data set: 96-well microtiter plate growth inhibition assay. Format: cell-based. To be noted: for inhibition: 200 mg/mL sample at 2% in well (positive standard 0.4%). As for the experimental part:
as §1, §2, §3, §4, §5

Another data set relates to Aspergillus niger. As to the kind of experiment: 96-well microtiter plate growth inhibition assay. Format: cell-based. To be noted: for inhibition at 200000 µg/mL (stock): 200 mg/mL sample at 2% in well (positive standard 0.4%). As for the experimental part: as §1, §2, §3, §4, §5
The next data set deals with Pseudomonas aeruginosa. As to the kind of experiment: 96-well microtiter plate growth inhibition assay. Format: cell-based. To be noted: for inhibition: 200 mg/mL sample at 2% in well (positive standard 0.4%). As for the experimental part:
as §1, §2, §3, §4, §5

A further data set has as its system Propionibacterium acnes. As to the kind of experiment: Minimum inhibitory concentration (MIC). The format is cell-based. To be noted: Cutibacterium acnes; Propionibacterium acnes (anaerobic); read-out: MIC (mg/mL) P. acnes. As for the experimental part: In a second step for the optimized extract of S. chamaecyparissus, the minimum inhibitory concentration (MIC) and the minimum bactericidal concentration (MBC) were also measured including E. coli and P. acnes. […] The MBC is the lowest concentration of antibacterial agent required to kill a particular bacterium, that is to say to reduce the viability of the initial bacterial inoculum by >99.9%. The dilutions were run in triplicate for the MIC and MBC test. At the end of the incubation, the tubes were read for the growth inhibition and then the MBC was determined by sampling all the macroscopically clear tubes and the first turbid tube in the series.
The results were expressed in mg/mL of extract.
The optimized extract was then assessed for its antimicrobial activity and more particularly in order to determine the minimum inhibitory concentration for Propionibacterium acnes (gram-positive bacteria). Methyl paraben and phenoxyethanol, as universal antimicrobial agents, were used as positive control. Due to the a higher active substance (I) content, the impact on the antimicrobial activity and more particularly on an anaerobic bacteria was evaluated.

The format of data set [1] is physicochemical. As for the experimental part: The pure compound appeared to be unstable once isolated, and particularly in aqueous and acid conditions. Since antimicrobial assays were performed in water, its antimicrobial activity could not be evaluated as for crude extracts or plant fractions. Thus, the inventors tried to establish a relationship between antimicrobial activity and active substance content in crude extracts.

The mark [2] stands for this setting: 24 h, read-out: Growth inhibition (%) 24 h, 2%.
The mark [3] stands for this setting: 48 h, read-out: Growth inhibition (%) 48 h, 2%.
[4] abbreviates: medium inhibition at 2%, Table 2.
[5] abbreviates: 72 h, read-out: Growth inhibition (%) 72 h, 2%.

In brackets after ≈: the same amount, converted by molar mass. Like-named read-outs stand apart in the source and are kept apart here.

On to `COC(=O)c1ccc(O)cc1` [Positive standard, Methylparaben], for which the inhibition at 200000 µg/mL (stock) with Staphylococcus aureus (setting [2]) is 80%; with Staphylococcus aureus (setting [3]), 93%; with Aspergillus niger (setting [3]), 100%; in the data set with Aspergillus niger (setting [5]) it was 100%. Further, the Review result in the data set with Staphylococcus aureus (setting [4]) is “++ (medium inhibition comprised between 70% and 90%)”; in the data set with Candida albicans (setting [4]) it was “+++ (medium inhibition greater or equal to 90%)”; in the data set on Aspergillus niger (setting [4]) it was “+++ (medium inhibition greater or equal to 90%)”; in the data set with Pseudomonas aeruginosa (setting [4]) it was “++ (medium inhibition comprised between 70% and 90%)”. Moreover, the inhibition in the data set with Candida albicans (setting [2]) came to 99%; in the data set with Candida albicans (setting [3]), 100%; in the data set with Pseudomonas aeruginosa (setting [3]) it was 75%; in the data set on Pseudomonas aeruginosa (setting [5]), 81%. Moreover, the MIC in the data set with Propionibacterium acnes turned out to be 2.53 mg/mL (≈ 16.6 mM).

On to `CC#CC#C/C=C1/C=CC2(OC=CC2OC(C)=O)O1` (centres unmarked) [pure compound, 1,6-dioxaspiro[4,4]nona-2,8-dien-4-ol,7-(2,4-hexadiyn-1-ylidene)-,4-acetate], for which, in data set [1], the stability once isolated entry is on record as “unstable”.

Values taken from patent US20170151299A1, “EXTRACTS OF SANTOLINA CHAMAECYPARISSUS” (priority 2014, published 2017).
